Results: PMC8933379, “Evaluation of the absolute oral bioavailability of the anaplastic lymphoma kinase/c-ROS oncogene 1 kinase inhibitor lorlatinib in healthy participants” (Cancer Chemotherapy and Pharmacology, 2021)
Entries after “also recorded” stand apart in the source; their conditions may differ. Read-outs that look alike come from different tables or passages of the source.

Legend:
[1] = rats; animal studies, no reference given; cited from earlier work
[2] = cited from earlier work; for Mean half-life: previous drug interaction studies
[3] = Safety evaluation (adverse events) in the crossover study
Protocol: Safety assessments were performed at screening, during the study, and at study completion, clinic discharge, or early termination. Safety assessments included physical examinations, 12‐lead ECGs, vital signs, and clinical laboratory evaluations. All adverse events (AEs) and concomitant treatments were monitored and recorded throughout the study. AEs were reported using NCI CTCAE terminology.

human blood = conditions: planned IV dose formulation, human blood in vitro; earlier toxicology studies, no reference given; cited from earlier work

C[C@H]1Oc2cc(cnc2N)-c2c(nn(C)c2C#N)CN(C)C(=O)c2ccc(F)cc21 [Lorlatinib, (10R)-7-amino-12-fluoro-2,10,16-trimethyl-15-oxo-10,15,16,17-tetrahydro-2H-8,4-(metheno)pyrazolo[4,3-h][2,5,11]-benzoxadiazacyclotetradecine-3-carbonitrile]
Absolute bioavailability [1]: approximately 100% | AUCinf reduction ([2]; co-administered with rifampicin): 85% | Mean half-life ([2]; lorlatinib alone, rifampin study): 29 h | Mean half-life ([2]; with the inducer rifampin): 18 h | Tolerability ([3]; 50 mg IV dose and 100 mg single oral dose, healthy participants): generally well-tolerated | Number of TEAEs (treatment-emergent adverse events) ([3]; 50 mg IV, n = 11): 8 | Number of TRAEs (treatment-related adverse events) ([3]; 50 mg IV, n = 11): 6 | Number of participants who reported AEs ([3]; 50 mg IV, n = 11): 4 | Participants with AEs: Abdominal discomfort, all causality ([3]; 50 mg IV, n = 11): 0 | Participants with AEs: Contusion, TRAE ([3]; 50 mg IV, n = 11): 0 | Participants with AEs: Contusion, all causality ([3]; 50 mg IV, n = 11): 1 | Participants with AEs: Dizziness, TRAE ([3]; 50 mg IV, n = 11): 1 (1) | Participants with AEs: Dizziness, all causality ([3]; 50 mg IV, n = 11): 1 (1) | Participants with AEs: Dysuria, all causality ([3]; 50 mg IV, n = 11): 0 | Participants with AEs: Eye disorders, all causality ([3]; 50 mg IV, n = 11): 0 | Participants with AEs: Gastrointestinal disorders, all causality ([3]; 50 mg IV, n = 11): 0 | Participants with AEs: General disorders and administration side conditions, all causality ([3]; 50 mg IV, n = 11): 0 | Participants with AEs: Headache, TRAE ([3]; 50 mg IV, n = 11): 2 (2) | Participants with AEs: Headache, all causality ([3]; 50 mg IV, n = 11): 2 (2) | Participants with AEs: Injury, poisoning and procedural complications, TRAE ([3]; 50 mg IV, n = 11): 0 | Participants with AEs: Injury, poisoning and procedural complications, all causality ([3]; 50 mg IV, n = 11): 1 | Participants with AEs: Investigations, TRAE ([3]; 50 mg IV, n = 11): 1 (1) | Participants with AEs: Investigations, all causality ([3]; 50 mg IV, n = 11): 1 (1) | Participants with AEs: Mental impairment, all causality ([3]; 50 mg IV, n = 11): 0 | Participants with AEs: Nausea, all causality ([3]; 50 mg IV, n = 11): 0 | Participants with AEs: Nervous system disorders, TRAE ([3]; 50 mg IV, n = 11): 2 (2) | Participants with AEs: Nervous system disorders, all causality ([3]; 50 mg IV, n = 11): 2 (2) | Participants with AEs: Nervousness, TRAE ([3]; 50 mg IV, n = 11): 0 | Participants with AEs: Nervousness, all causality ([3]; 50 mg IV, n = 11): 1 | Participants with AEs: Paraesthesia, TRAE ([3]; 50 mg IV, n = 11): 1 (1) | Participants with AEs: Paraesthesia, all causality ([3]; 50 mg IV, n = 11): 1 (1) | Participants with AEs: Photophobia, all causality ([3]; 50 mg IV, n = 11): 0 | Participants with AEs: Psychiatric disorders, TRAE ([3]; 50 mg IV, n = 11): 0 | Participants with AEs: Psychiatric disorders, all causality ([3]; 50 mg IV, n = 11): 1 | Participants with AEs: Renal and urinary disorders, all causality ([3]; 50 mg IV, n = 11): 0 | Participants with AEs: Somnolence, all causality ([3]; 50 mg IV, n = 11): 0 | Participants with AEs: Transaminase increased, TRAE ([3]; 50 mg IV, n = 11): 1 (1) | Participants with AEs: Transaminase increased, all causality ([3]; 50 mg IV, n = 11): 1 (1) | Participants with AEs: Visual field defect, TRAE ([3]; 50 mg IV, n = 11): 1 (1) | Participants with AEs: Visual field defect, all causality ([3]; 50 mg IV, n = 11): 1 (1) | Deaths, serious AEs, severe AEs, discontinuations or dose reductions due to AEs ([3]; 100 mg oral and 50 mg IV, 11 healthy participants): No deaths, serious adverse events (AEs), or severe AEs were reported; also recorded: No deaths, serious AEs, severe AEs, permanent discontinuations, temporary discontinuations, or dose reductions due to AEs were reported | Number of TEAEs (treatment-emergent adverse events) ([3]; 100 mg oral tablets, n = 11): 12 | Number of TRAEs (treatment-related adverse events) ([3]; 100 mg oral tablets, n = 11): 9 | Participants with AEs: Abdominal discomfort, TRAE ([3]; 100 mg oral tablets, n = 11): 0 | Participants with AEs: Abdominal discomfort, all causality ([3]; 100 mg oral tablets, n = 11): 1 | Participants with AEs: Contusion, all causality ([3]; 100 mg oral tablets, n = 11): 0 | Participants with AEs: Dizziness, TRAE ([3]; 100 mg oral tablets, n = 11): 1 (1) | Participants with AEs: Dizziness, all causality ([3]; 100 mg oral tablets, n = 11): 1 (1) | Participants with AEs: Dysuria, TRAE ([3]; 100 mg oral tablets, n = 11): 1 (1) | Participants with AEs: Dysuria, all causality ([3]; 100 mg oral tablets, n = 11): 1 (1) | Participants with AEs: Eye disorders, TRAE ([3]; 100 mg oral tablets, n = 11): 1 (1) | Participants with AEs: Eye disorders, all causality ([3]; 100 mg oral tablets, n = 11): 1 (1) | Participants with AEs: Gastrointestinal disorders, TRAE ([3]; 100 mg oral tablets, n = 11): 0 | Participants with AEs: Gastrointestinal disorders, all causality ([3]; 100 mg oral tablets, n = 11): 2 | Participants with AEs: General disorders and administration side conditions, TRAE ([3]; 100 mg oral tablets, n = 11): 0 | Participants with AEs: General disorders and administration side conditions, all causality ([3]; 100 mg oral tablets, n = 11): 1 | Participants with AEs: Headache, TRAE ([3]; 100 mg oral tablets, n = 11): 2 (2) | Participants with AEs: Headache, all causality ([3]; 100 mg oral tablets, n = 11): 2 (2) | Participants with AEs: Injury, poisoning and procedural complications, all causality ([3]; 100 mg oral tablets, n = 11): 0 | Participants with AEs: Investigations, TRAE ([3]; 100 mg oral tablets, n = 11): 1 (1) | Participants with AEs: Investigations, all causality ([3]; 100 mg oral tablets, n = 11): 1 (1) | Participants with AEs: Mental impairment, TRAE ([3]; 100 mg oral tablets, n = 11): 1 (1) | Participants with AEs: Mental impairment, all causality ([3]; 100 mg oral tablets, n = 11): 1 (1) | Participants with AEs: Nausea, TRAE ([3]; 100 mg oral tablets, n = 11): 0 | Participants with AEs: Nausea, all causality ([3]; 100 mg oral tablets, n = 11): 1 | Participants with AEs: Nervous system disorders, TRAE ([3]; 100 mg oral tablets, n = 11): 3 (3) | Participants with AEs: Nervous system disorders, all causality ([3]; 100 mg oral tablets, n = 11): 3 (3) | Participants with AEs: Nervousness, all causality ([3]; 100 mg oral tablets, n = 11): 0 | Participants with AEs: Paraesthesia, TRAE ([3]; 100 mg oral tablets, n = 11): 1 (1) | Participants with AEs: Paraesthesia, all causality ([3]; 100 mg oral tablets, n = 11): 1 (1) | Participants with AEs: Photophobia, TRAE ([3]; 100 mg oral tablets, n = 11): 1 (1) | Participants with AEs: Photophobia, all causality ([3]; 100 mg oral tablets, n = 11): 1 (1) | Participants with AEs: Psychiatric disorders, all causality ([3]; 100 mg oral tablets, n = 11): 0 | Participants with AEs: Renal and urinary disorders, TRAE ([3]; 100 mg oral tablets, n = 11): 1 (1) | Participants with AEs: Renal and urinary disorders, all causality ([3]; 100 mg oral tablets, n = 11): 1 (1) | Participants with AEs: Somnolence, TRAE ([3]; 100 mg oral tablets, n = 11): 1 (1) | Participants with AEs: Somnolence, all causality ([3]; 100 mg oral tablets, n = 11): 1 (1) | Participants with AEs: Transaminase increased, TRAE ([3]; 100 mg oral tablets, n = 11): 1 (1) | Participants with AEs: Transaminase increased, all causality ([3]; 100 mg oral tablets, n = 11): 1 (1) | Participants with AEs: Visual field defect, all causality ([3]; 100 mg oral tablets, n = 11): 0 | Number of participants who reported AEs ([3]; 100 mg oral, n = 11): 4 | Potential to cause hemolysis (human blood): did not indicate any potential to cause hemolysis
